Test results: ChEMBL document CHEMBL4507268 (2021)

Experiments:
Conditions in all cases: Compound concentration 1.0 uM
[1] = target: T1, Bone morphogenetic protein receptor type-2 (Homo sapiens) (UniProt Q13873)
T1 sequence (whole entry): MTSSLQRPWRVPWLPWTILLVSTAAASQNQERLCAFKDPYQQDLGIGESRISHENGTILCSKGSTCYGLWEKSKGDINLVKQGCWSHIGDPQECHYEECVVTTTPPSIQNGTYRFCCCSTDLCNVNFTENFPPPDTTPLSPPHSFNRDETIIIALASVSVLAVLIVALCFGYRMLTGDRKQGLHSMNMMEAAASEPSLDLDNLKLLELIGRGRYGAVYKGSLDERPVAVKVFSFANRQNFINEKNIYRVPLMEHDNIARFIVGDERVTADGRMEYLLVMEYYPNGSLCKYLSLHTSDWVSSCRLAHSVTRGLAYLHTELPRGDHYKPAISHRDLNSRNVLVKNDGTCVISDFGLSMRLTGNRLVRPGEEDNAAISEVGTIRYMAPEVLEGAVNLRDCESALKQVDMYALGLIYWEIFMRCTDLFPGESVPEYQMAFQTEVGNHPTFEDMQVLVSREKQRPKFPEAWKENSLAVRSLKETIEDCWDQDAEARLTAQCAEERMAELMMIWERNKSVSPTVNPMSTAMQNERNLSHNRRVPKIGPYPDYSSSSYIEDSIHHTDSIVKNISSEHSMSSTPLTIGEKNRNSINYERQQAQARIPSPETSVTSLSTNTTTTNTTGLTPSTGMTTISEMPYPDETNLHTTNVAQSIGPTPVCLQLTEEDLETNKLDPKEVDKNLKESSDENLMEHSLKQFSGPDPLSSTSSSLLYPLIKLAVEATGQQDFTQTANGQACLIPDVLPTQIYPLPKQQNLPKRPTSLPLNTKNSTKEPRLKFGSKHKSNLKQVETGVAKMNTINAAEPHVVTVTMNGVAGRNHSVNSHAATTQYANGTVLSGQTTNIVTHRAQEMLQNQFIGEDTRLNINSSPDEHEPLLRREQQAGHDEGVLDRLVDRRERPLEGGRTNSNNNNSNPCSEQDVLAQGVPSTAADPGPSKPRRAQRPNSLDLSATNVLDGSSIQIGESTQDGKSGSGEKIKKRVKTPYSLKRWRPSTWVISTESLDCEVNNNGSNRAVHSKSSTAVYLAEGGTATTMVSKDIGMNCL

[2] = target: MAP/microtubule affinity-regulating kinase 3 (Homo sapiens) (UniProt P27448)
[3] = target: T2, Serine/threonine-protein kinase PLK4 (Homo sapiens) (UniProt O00444)
T2 sequence (whole entry): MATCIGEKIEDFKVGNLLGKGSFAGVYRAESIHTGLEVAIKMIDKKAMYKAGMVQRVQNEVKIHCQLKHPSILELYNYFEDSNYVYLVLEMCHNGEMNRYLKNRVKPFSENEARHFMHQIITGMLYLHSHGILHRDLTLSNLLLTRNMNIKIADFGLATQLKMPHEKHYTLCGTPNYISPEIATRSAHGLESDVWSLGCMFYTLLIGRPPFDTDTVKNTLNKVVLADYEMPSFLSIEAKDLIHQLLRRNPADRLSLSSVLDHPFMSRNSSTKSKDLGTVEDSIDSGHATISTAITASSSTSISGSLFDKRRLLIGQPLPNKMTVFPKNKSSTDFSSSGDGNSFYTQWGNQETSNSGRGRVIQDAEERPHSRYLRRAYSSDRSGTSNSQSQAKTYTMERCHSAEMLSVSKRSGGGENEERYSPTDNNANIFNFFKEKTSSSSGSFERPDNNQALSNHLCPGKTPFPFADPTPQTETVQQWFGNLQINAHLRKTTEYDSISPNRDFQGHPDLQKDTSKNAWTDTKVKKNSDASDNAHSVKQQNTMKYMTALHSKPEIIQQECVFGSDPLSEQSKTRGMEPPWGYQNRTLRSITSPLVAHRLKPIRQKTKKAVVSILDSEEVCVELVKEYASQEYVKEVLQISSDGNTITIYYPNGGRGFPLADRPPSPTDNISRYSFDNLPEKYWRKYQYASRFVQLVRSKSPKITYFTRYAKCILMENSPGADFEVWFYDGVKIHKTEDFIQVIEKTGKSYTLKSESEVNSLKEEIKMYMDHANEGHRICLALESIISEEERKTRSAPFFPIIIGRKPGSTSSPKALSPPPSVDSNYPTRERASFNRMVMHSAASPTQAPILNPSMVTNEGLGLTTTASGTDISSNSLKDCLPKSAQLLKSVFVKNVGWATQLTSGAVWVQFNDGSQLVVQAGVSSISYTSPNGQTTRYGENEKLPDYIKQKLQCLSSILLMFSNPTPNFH

[4] = target: Calcium/calmodulin-dependent protein kinase type II subunit alpha (Homo sapiens) (UniProt Q9UQM7)
[5] = target: T3, Serine/threonine-protein kinase Chk1 (Homo sapiens) (UniProt O14757)
T3 sequence (whole entry): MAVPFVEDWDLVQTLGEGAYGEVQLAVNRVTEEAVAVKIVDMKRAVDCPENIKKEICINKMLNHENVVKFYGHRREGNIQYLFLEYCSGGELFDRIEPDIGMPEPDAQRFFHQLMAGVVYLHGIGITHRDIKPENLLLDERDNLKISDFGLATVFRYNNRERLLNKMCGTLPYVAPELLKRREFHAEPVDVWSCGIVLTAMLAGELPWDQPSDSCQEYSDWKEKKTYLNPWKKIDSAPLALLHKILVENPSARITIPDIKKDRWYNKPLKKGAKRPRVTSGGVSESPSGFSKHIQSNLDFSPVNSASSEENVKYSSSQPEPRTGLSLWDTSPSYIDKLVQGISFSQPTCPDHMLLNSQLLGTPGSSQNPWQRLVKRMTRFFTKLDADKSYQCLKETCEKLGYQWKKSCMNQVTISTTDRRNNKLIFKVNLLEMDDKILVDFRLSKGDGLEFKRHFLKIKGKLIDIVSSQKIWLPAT

Measured: % residual kinase activity

MAP/microtubule affinity-regulating kinase 3 (Homo sapiens), sequence (P27448 whole entry, looked up): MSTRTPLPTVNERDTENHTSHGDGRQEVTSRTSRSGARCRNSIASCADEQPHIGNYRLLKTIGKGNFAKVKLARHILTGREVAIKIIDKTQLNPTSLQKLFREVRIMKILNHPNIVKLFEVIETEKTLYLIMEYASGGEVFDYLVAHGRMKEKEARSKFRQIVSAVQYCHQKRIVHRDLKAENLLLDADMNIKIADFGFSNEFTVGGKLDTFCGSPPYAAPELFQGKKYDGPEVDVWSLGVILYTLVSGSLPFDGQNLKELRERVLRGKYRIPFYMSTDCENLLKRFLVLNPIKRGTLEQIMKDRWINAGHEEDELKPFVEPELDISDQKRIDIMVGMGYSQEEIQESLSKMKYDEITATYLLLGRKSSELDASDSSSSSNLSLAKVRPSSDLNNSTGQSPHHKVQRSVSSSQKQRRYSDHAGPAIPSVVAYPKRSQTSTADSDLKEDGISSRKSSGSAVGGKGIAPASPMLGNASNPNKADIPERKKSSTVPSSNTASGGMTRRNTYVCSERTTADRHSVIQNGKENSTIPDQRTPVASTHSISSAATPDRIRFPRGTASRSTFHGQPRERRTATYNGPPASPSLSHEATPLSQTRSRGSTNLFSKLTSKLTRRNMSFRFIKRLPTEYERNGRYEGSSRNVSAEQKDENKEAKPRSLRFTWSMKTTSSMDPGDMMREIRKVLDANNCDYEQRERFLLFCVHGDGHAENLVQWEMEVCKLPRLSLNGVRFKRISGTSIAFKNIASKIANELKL
Calcium/calmodulin-dependent protein kinase type II subunit alpha (Homo sapiens), sequence (Q9UQM7 whole entry): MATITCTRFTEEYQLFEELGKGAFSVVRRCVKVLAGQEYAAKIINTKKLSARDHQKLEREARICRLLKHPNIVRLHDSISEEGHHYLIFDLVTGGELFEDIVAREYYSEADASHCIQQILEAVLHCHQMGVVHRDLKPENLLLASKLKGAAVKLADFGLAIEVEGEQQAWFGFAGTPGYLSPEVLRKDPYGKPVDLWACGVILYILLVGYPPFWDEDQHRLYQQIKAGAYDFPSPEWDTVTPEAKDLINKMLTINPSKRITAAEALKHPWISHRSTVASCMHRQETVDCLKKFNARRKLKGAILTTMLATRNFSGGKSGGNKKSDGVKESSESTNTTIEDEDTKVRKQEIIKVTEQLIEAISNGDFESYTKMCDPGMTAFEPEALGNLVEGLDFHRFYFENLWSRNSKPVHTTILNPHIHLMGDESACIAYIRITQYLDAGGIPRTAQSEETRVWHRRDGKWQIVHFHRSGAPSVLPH

CN1CCN(c2cnc3c(C4CCN(C(=O)c5ccc(OC(F)(F)F)cc5N)CC4)ncnc3c2)CC1 [BAY-885]
inactive: [1] 100% | [2] 100% | [3] 88% | [4] 108% | [5] 89%
